Columns and labels:
[1] = system: Mouse Ear Edema Induced by TPA; assay: Mouse ear edema induced by TPA; assay type: in vivo; settings: topical, 1 mg/40 μL/ear × 2; ICR male mouse; 6 hours after TPA
Method: Pharmacological Test Example 2: Mouse Ear Edema Induced by TPA
This test was carried out referring to the method of Carlson, R. P. et al. (Agents and Actions, 17(2): 197–204 (1985).) and the method of Chang, J. (European Journal of Pharmacology, 142: 197–205 (1987).). More specifically, 5 μg/20 μL of TPA (Sigma Chemical Co.), dissolved with ethanol, was topically applied to the anterior and posterior surfaces of the right ear of an ICR-strain male mouse (6–7 weeks old). 6 hours later, the thickness of each ear at the particular part was respectively measured three times using a digimatic micrometer to calculate the mean value. Ear edema was determined by subtracting the mean thickness of the left ear as without treatment from that of the right ear as TPA-applied. Topical application activity was evaluated by applying an acetone solution of the compound of the present invention or 0.1% Tween 80/acetone solution thereof similarly to the anterior and posterior surfaces of the right ear 30 min. before and 15 min. after the TPA-application. […] Oral administration activity was evaluated by administrating 0.2% Tween 80 suspension of the compound of the present invention forcibly and perorally to the mouse an hour prior to the TPA-application. As the positive control, 100 mg/kg of Hydrocortisone (Sigma Chemical Co., H 4001) suspension was applied to the mouse similarly as for the compound of the present invention.

[2] = biological target: T1, IV-cPLA(2) in activated U937 cells (Homo sapiens, UniProt P47712); assay: PLA(2) activity: hydrolysis of bis-BODIPY FL C11-PC in TPA/A23187-activated U937 cells; assay type: cell-based; settings: U-937
T1 sequence (P47712 1-749): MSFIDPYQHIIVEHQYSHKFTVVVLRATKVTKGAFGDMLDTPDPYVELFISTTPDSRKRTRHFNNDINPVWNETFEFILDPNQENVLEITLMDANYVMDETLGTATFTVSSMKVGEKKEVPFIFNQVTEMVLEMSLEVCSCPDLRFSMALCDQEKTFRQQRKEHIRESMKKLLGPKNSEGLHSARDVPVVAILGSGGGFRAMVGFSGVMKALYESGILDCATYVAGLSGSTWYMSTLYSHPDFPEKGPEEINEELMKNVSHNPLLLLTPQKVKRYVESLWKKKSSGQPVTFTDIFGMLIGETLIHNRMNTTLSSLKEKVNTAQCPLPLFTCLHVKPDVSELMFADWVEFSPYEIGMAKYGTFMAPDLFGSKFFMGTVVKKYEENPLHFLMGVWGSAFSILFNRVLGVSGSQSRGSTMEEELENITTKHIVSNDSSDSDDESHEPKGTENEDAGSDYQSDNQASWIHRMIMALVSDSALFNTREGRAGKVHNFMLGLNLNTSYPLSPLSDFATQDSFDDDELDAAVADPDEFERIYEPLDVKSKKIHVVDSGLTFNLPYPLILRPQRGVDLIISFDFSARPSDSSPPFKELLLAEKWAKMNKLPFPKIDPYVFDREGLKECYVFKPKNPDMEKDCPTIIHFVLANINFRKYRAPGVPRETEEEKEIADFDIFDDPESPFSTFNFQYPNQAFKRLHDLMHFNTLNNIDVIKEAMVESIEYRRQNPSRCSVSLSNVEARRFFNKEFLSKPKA
Method: The PLA(2) activity was measured by quantitatively analyzing the fluorescent product of hydrolysis from 1,2-bis-(4,4-difluoro-5,7-dimethyl-4-bora-3a,4a-diaza-s-indecene-3-undecanoyl)-sn-glycero-3-phosphocholine (hereinafter referred to bis-BODIPY®FL C11-PC, Molecular probes, Inc., B-7701) using activated U937 cells (human monoblastic lymphoma cell line) by inflammatory stimulus (Meshulam, T. et al., The journal of Biological Chemistry 267 (30): 21465–21470 (1992); and Solito, E. et al., British Journal of Pharmacology 124: 1675–1683(1998).). The substrate bis-BODIPY®FL C11-PC is incorporated into cellular membranes, the proximity of the BODIPY®FL fluorophores on adjacent phospholipid acyl chains causes fluorescence self-quenching. Separation of the fluorophores upon hydrolytic cleavage of one of the acyl chains by PLA(1) or the PLA(2) results in increased fluorescence. […]
The test compound was dissolved with DMSO at 30 mM, and the solution diluted with either DMSO or the Assay medium before addition into the reaction mixture. […] The increased fluorescence of the hydrolysis product by the enzyme was determined by measuring the fluorescence emission intensity at 535 nm with excitation at 485 nm from the top side of each plate at 37° C., using a Multi Functional Microplate Reader SPECTRA FLUOR PLUS (TECAN Austria GmbH). […]

[3] = system: acetic acid induced writhes; assay: Acetic acid writhing; assay type: in vivo, mouse
Method: Pharmacological Test Example 4: Acetic Acid Wirthing
This test was carried out referring to the method of Inoue, K., Motonaga, A. & Nishimura, T (Arzneimittel Forshung/Drug Research, 41 (1): 235–239 (1991)). More specifically, 7.5 mL/kg of 0.9% acetic acid solution was injected intraperitoneally into an ICR-strain male mouse (5 to 7 weeks old), and the induced writhes (characteristic behaviors of convulsive contracting the abdomen, twisting the body and/or extending the legs) were observed. Number of writhes of each mouse was measured during 10 to 20 min. period after acetic acid administration. […] The analgesic activity of the compounds according to the present invention was evaluated on the basis of the degree of inhibiting the number writhes by the administration of the compounds. As the positive control, indomethacin or aspirin was administrated. The analgesic activity of the compounds according to the present invention measured in this test were exemplified in Table 7.

[4] = system: Mouse Delayed Contact Dermatitis Induced by Picryl Chloride; assay: Mouse delayed contact dermatitis induced by picryl chloride; assay type: in vivo
Method: Pharmacological Test Example 3 Mouse Delayed Contact Dermatitis Induced by Picryl Chloride
This pharmacological test was carried out referring to the method of Asherson, G. L. & Ptak, W. (Immunology, 15: 405–416 (1968).) and the method of Jun Hiroi (Folia Pharmacology of Japan, 86: 233–239 (1985).). More specifically, hairs on the abdomen of an ICR-strain male mouse were removed using an electric clipper and an electric shaver. Then, 0.1 mL of 7% ether solution of picryl chloride (Tokyo Kasei Kogyo Co., Ltd., C 0307) was applied onto the abdomen for sensitization. On the sixth day after the sensitization, 20 μL/ear of 1% olive oil solution of picryl chloride was topically applied to the anterior and posterior surfaces of both ears of the mouse to induce contact dermatitis (first induction). Before and 24 hours after the induction, the thicknesses of the particular parts on the both ears were measured three times, respectively, using a digimatic micrometer (Mitsutoyo Co., Ltd.) to work out the average values. Ear edema of the both ears was respectively determined by subtracting the average thickness of the each ear before the induction from that on 24 hours after the induction, so that a grouping was carried out to separate the appropriate individuals. On the fourth day after the first induction, the hairs on the abdomen were removed again, and 0.1 mL of 7% ethanol solution of picryl chloride was applied thereto for additional sensitization. The contact dermatitis for evaluating activity was induced by re-applying 20 μL/ear of 1% olive oil solution of picryl chloride to the anterior and posterior surfaces of both ears (second induction) on the seventh day after the additional sensitization (on the […] after the first sensitization). The activity of each compound of the present invention was evaluated as the inhibition on the contact dermatitis as compared with that of the vehicle applied control. That is, the thicknesses of the particular portions of the both ears were measured respectively three times with a digimatic micrometer to work out the mean values before, 24 hours and 48 hours after the second induction. Ear swelling was determined by subtracting the ear thickness before the second induction from that on 24 hours and 48 hours after the second induction, respectively. Topical application activity was evaluated by applying 25 μL of the acetone solution of the compound of the present invention similarly to the anterior and posterior surfaces of the right ear one hour before and 16 hours after the second induction. As the positive control, 0.02 mg/20 μL of acetone solution of Dexamethasone (hereinafter referred to as DEX, Wako Pure Chemical Industries Ltd., 047-18863) was applied similarly as for the compound of the present invention. With respect to the inhibitory activity in topical application tests, the topical activity was determined by the inhibition of the applied right ear edema, and the translocation and distribution property was determined by the activity onto the swelling of non-treated left ear. Oral administration activity was evaluated by administrating 0.5% methyl cellulose suspension of the compound of the present invention forcibly and perorally to the mouse an hour before and 16 hours after the second induction. As the positive control, 20 mg/kg of Prednisolone (Sigma Chemical Co., P 6004) suspension was administrated similarly as for the compounds of the present invention. […] As the examples, the body weight changes in the mice for 48 hours after the second induction when they were administrated with the compounds shown in Table 5 are shown in Table 6.

[5] = system: Mouse Delayed Contact Dermatitis Induced by Picryl Chloride; assay: as above; assay type: in vivo; remark: listed apart in the source

Row | Compound | Ear Edema Inhibition (%) [1] [%] | inhibition at 0.1 µM [2] [%] | Number of writhes (Mean ± S.E.) ([3]; i.p. 1 mg/kg, 30 min before, vehicle i.p. 25.2 ± 2.2) | Number of writhes (Mean ± S.E.) ([3]; p.o. 10 mg/kg, 120 min before, vehicle p.o. 23.5 ± 3.1) | Change in body weight 48 hours after induction (Mean ± S.E.) ([4]; 0.02 mg/ear × 2, vehicle control −0.45 ± 0.20) [g] | Change in body weight 48 hours after induction (Mean ± S.E.) (%) ([4]; 0.02 mg/ear × 2, vehicle control −1.29 ± 0.59) | intoxicated symptoms ([4]; mice of the picryl chloride dermatitis test) | body weight 48 hours after the second induction ([4]; mice of the picryl chloride dermatitis test, 48 hours after the second induction) | Ear swelling after 24 hours, Right (Applied) (Mean ± S.E., mm) ([5]; topical 0.02 mg/25 μL/ear × 2, vehicle control 0.299 ± 0.006) [mm] | Ear swelling after 24 hours, Left (Not applied) (Mean ± S.E., mm) ([5]; topical 0.02 mg/25 μL/ear × 2 on right ear, vehicle control 0.284 ± 0.008) [mm]
1 | Cc1ccc(S(=O)(=O)C(C#N)=C2N[C@@H](C)[C@@H](c3ccc(Cl)cc3)O2)cc1 (relative stereo) [Compound 1-41, Cis-5-(4-chlorophenyl)-4-methyl-2-(1-(4-methylphenylsulfonyl)-1-cyanomethylene)-oxazolidine] | 80.5 | 100 | 4.0 ± 1.9 | 1.3 ± 0.8 | – | – | – | – | – | –
2 | C[C@@H]1C[C@H]2[C@@H]3CCC4=CC(=O)C=C[C@]4(C)[C@@]3(F)[C@@H](O)C[C@]2(C)[C@@]1(O)C(=O)CO [DEX, Dexamethasone] | – | – | – | – | -1.42 ± 0.20 | −4.30 ± 0.59 | showed intoxicated symptoms | reduced significantly | 0.057 ± 0.009 | −0.005 ± 0.033

Source: US7189751B2, “Oxa(thia)zolidine compounds, process for preparation thereof and anti-inflammatory agents” (Nippon Soda Co., Ltd., priority 2001, dated 2007)
